In patent US20240245677A1, “SELECTED COMPOUNDS FOR TARGETED DEGRADATION OF BRD9” (C4 THERAPEUTICS, INC., priority 2021, published 2024):
Like-named read-outs stand apart in the source and are kept apart here.

Experiments:
[1] = Crystallization by addition of anti-solvent; format: physicochemical; conditions: for Comments: form after seeding: add Pattern G as seeds, slurry for 5 days
Procedure: Based on approximate solubility results, about 20 mg of Compound 1 free form Pattern E was dissolved in the minimal amount of good solvent. Anti-solvent was added into the obtained solutions slowly. Precipitates were collected by centrifuged. The solid part (wet cake) were investigated by XRPD.

in vitro = conditions: plasma; for % Bound / % Remaining at 3 hours: 3 h, 2 µM
Procedure: Plasma protein binding (PPB) of Compound 1 was evaluated in plasma from mice, rats, dogs, cynomolgus monkeys, and humans using ultracentrifugation.
Frozen plasma from CD-1 mice, Sprague-Dawley rats, beagle dogs, cynomolgus monkeys, and humans was purchased and stored at ≤−30° C. On the day of study, plasma samples of CD-1 mice, Sprague-Dawley rats, beagle dogs, cynomolgus monkeys and humans were thawed under running cold tap water and centrifuged to remove any particulates.
For the internal standard, telmisartan, a 1 mg/mL solution was prepared by dissolving 1.4 mg of telmisartan in 1.4 mL of DMSO, and stored at 4° C.
The 10 mM stock solution of each test compound was used to prepare 400 μM intermediate stocks in methanol. Then, a 2 μM working stock of each test compound was prepared for plasma from each species (mouse, rat, dog, monkey, and human) by spiking 12 μL of the 400 μM intermediate stock for each test compound into 2400 μL of thawed and prepared plasma from a test species.
400 μL of blank plasma for each species was transferred to a 0.5 mL Beckman tube (Part No. 343776, Beckman Coulter Life Sciences, Indianapolis, IN, USA) and centrifuged for 3 hours at 627000×g at 37° C. The supernatant was removed and kept at room temperature.
To prepare for ultracentrifugation, the rotor of the centrifuge was placed into an incubator and warmed up to 37° C. before centrifugation. The vacuum switch of the OPTIMA™ MAX-TL Ultracentrifuge (Beckman Coulter Life Sciences, Indianapolis, IN, USA) was turned on and the vacuum was reduced to less than 10 microns to warm up the system. The ultracentrifuge's parameters were set to the following: Temperature—37° C.; Time—3 hours; and Speed—627000×g. For each species and each test compound, 2.4 mL of working stock was mixed and pre-incubated for 45 minutes at 37° C. Then, 60 μL was separated and precipitated with 200 μL of acetonitrile containing internal standard and labeled as (TO), and 0.4 mL (triplicates) were transferred to Beckman 2 mL tubes (Part No. 344625, Beckman Coulter Life Sciences, Indiana, IN, USA).
For each species and each test compound, the triplicate 0.4 mL sample tubes were centrifuged for 3 hours at 627000×g at 37° C. […] At 45 minutes, 60 μL was separated, precipitated with 200 μL of acetonitrile containing internal standard and labelled as (T45). After completion of 3 hours, 60 μL of incubated samples were separated, precipitated with acetonitrile containing internal standard, and labeled as (T3).
After completing the 3 hours of centrifugation, 30 μl of the top fraction of supernatant from each sample tube was removed (free fraction) and precipitated with acetonitrile containing internal standard (labeled as top sample).
After removing 30 μL of the top fraction, remaining top and bottom layer were mixed thoroughly to make a uniform mixture. From this mixture, 30 μL of bottom sample was collected and precipitated with acetonitrile containing internal standard (labelled as bottom sample).
Matrix matching was done for crashed stability samples (TO, T45 and T3 samples) by adding 30 μL of a 50:50 mixture of blank plasma supernatant and phosphate-buffered saline (PBS), and for top and bottom samples, by adding 30 μL of blank plasma (kept at room temperature).
All the stability samples and centrifuged samples were vortexed at 1000 rpm for 5 minutes and centrifuged at 4000 rpm for 10 minutes. Supernatant from each sample was separated, diluted 2-fold with water, and analyzed in LC-MS/MS.
Samples (supernatant-free fraction and total plasma) were analyzed by LCMS-MS (no standards).

[2] = tested on: Yamato-SS synovial sarcoma cell line; assay: Global proteomics in Yamato-SS cells; format: cell-based, human; conditions: 100 nM, 4 hours; for Emax at 0.1 µM: Homo sapiens
Procedure: Global protein expression was performed in Yamato-SS and HSSYII synovial sarcoma cell lines after 4-hour treatment with Compound 1 (100 nM). The Yamato-SS cell line was provided by the RIKEN BRC through the National BioResource Project of the MEXT/AMED, Japan (cat #RCB3577), and the HS-SY-II cell line was provided by the RIKEN BRC through the National BioResource Project of the MEXT/AMED, Japan (cat #RCB2231).
Both Yamato-SS and HSSYII cell lines were treated with Compound 1 at 100 nM for 4 hours and analyzed by multiplexed quantitative proteomics. The x-axis illustrates the totality of the proteomics data and is labeled as fold change (FC) of Compound 1 vs vehicle in a Log 2 transformation scale. The statistical significance (T-test of treated vs. DMSO with Benjamini-Hochberg correction applied) of the observed changes is shown in the y-axis as negative Log 10 of the P-value. The horizontal dashed line marks the statistical significance (P-value ≤0.001) and the vertical line marks fold change ≥2.

COc1cc(-c2cn(C)c(=O)c(C)c2C)cc(OC)c1CN1CC[C@H](N2CCN(c3ccc(N[C@H]4CCC(=O)NC4=O)cc3F)CC2)C(F)(F)C1 [Compound 1, (S)-3-((4-(4-((S)-1-(2,6-dimethoxy-4-(1,4,5-trimethyl-6-oxo-1,6-dihydropyridin-3-yl)benzyl)-3,3-difluoropiperidin-4-yl)piperazin-1-yl)-3-fluorophenyl)amino)-piperidine-2,6-dione]
Comments: form after seeding ([1]; 2-MeTHF/110, Heptane/200): for 5 days: Pattern G
Comments: form after seeding ([1]; DCM/200, Heptane/400): Pattern F
Comments: form after seeding ([1]; THF/40, Heptane/160): for 5 days: Pattern G
XRPD ([1]; solvent 1,4-dioxane/200, anti-solvent Heptane/400): Pattern F
Comments ([1]; solvent 2-MeTHF/200, anti-solvent MTBE/200): Oil-like sample
XRPD ([1]; solvent DCM/200, anti-solvent MTBE/400): Pattern F
fraction unbound at 3 h, 2 µM (in vitro; CD-1, mouse): 0.0339
% Bound (in vitro; CD-1, mouse): 96.61%
% Remaining at 3 hours (in vitro; CD-1, mouse): 84.69%
fraction unbound at 3 h, 2 µM (in vitro; Sprague-Dawley, rat): 0.0971
% Bound (in vitro; Sprague-Dawley, rat): 90.29%
% Remaining at 3 hours (in vitro; Sprague-Dawley, rat): 88.73%
fraction unbound at 3 h, 2 µM (in vitro; beagle, dog): 0.0646
% Bound (in vitro; beagle, dog): 93.54%
% Remaining at 3 hours (in vitro; beagle, dog): 99.38%
fraction unbound at 3 h, 2 µM (in vitro; human): 0.067
% Remaining at 3 hours (in vitro; human): 66.87%
fraction unbound at 3 h, 2 µM (in vitro; monkey): 0.0514
% Bound (in vitro; monkey): 94.86%
% Remaining at 3 hours (in vitro; monkey): 99.14%
ADAMST1 protein level decrease vs DMSO control [2]: 66.3%
BRD9 protein level decrease vs DMSO control [2]: 66.5%
Emax at 0.1 µM ([2]; read-out: ADAMST1 Emax): 33.7%
Emax at 0.1 µM ([2]; read-out: BRD9 Emax): 33.5%
